Results: paper PMC8462099 (Molecular cell, 2021)

Tests used:
AMPKγ1 [1] = molecular target: T1, AMPKγ1 (Homo sapiens, UniProt P54619); assay: [3H]AMP binding to GST fusion protein
AMPKγ1 [2] = molecular target: T1, AMPKγ1; assay: [3H]inositol saturation binding

T1 sequence (P54619 whole entry, the tested form may be a part): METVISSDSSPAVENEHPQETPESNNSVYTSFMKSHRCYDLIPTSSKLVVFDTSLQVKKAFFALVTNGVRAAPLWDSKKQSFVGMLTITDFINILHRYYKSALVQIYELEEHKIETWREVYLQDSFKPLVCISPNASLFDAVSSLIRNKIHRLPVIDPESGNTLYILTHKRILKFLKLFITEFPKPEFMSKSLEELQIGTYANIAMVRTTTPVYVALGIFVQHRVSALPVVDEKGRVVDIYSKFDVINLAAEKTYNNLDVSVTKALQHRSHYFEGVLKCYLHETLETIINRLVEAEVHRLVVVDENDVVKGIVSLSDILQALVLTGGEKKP

IC50 (AMPKγ1 [1]) [µM] | Kd (AMPKγ1 [2]) [pmol] | Compound
1.9 | – | Nc1ncnc2c1ncn2[C@@H]1O[C@H](COP(=O)(O)O)[C@@H](O)[C@H]1O [AMP]
– | 98.2 | O[C@H]1[C@H](O)[C@@H](O)[C@H](O)[C@@H](O)[C@H]1O [Ins, inositol]
